The NIST ThermoML archive (doi:10.1016/j.fluid.2016.10.027)
Numbers after ± are expanded uncertainties.

Experiments:
[1] = 101.33 kPa, Liquid, Vibrating tube method
[2] = refractive index (Na D-line) (dimensionless); details: 101.33 kPa, Liquid, Standard Abbe refractometry

mass density ([1]; 298.15 K) [kg/m3] | refractive index ([2]; 298.15 K) | mass density ([1]; 293.15 K) [kg/m3] | refractive index ([2]; 293.15 K) | SMILES
1044.6 ± 2 | 1.3703 ± 0.0005 |  |  | CC(=O)O [acetic acid]
804 ± 2 | 1.3962 ± 0.0005 |  |  | CCC(C)O (configuration not stated) [butan-2-ol]
 |  | 871 ± 2 | 1.3876 ± 0.0006 | CCC(C)OC(C)=O (configuration not stated) [1-methylpropyl ethanoate]
 | 1.332 ± 0.0005 |  |  | O [water]
